According to ChEMBL document CHEMBL1127123, “Justicidin E: A new leukotriene biosynthesis inhibitor” (Bioorg Med Chem Lett, 1993):

Target: T1, Polyunsaturated fatty acid 5-lipoxygenase (Homo sapiens, UniProt P09917)
T1 sequence (P09917 whole entry): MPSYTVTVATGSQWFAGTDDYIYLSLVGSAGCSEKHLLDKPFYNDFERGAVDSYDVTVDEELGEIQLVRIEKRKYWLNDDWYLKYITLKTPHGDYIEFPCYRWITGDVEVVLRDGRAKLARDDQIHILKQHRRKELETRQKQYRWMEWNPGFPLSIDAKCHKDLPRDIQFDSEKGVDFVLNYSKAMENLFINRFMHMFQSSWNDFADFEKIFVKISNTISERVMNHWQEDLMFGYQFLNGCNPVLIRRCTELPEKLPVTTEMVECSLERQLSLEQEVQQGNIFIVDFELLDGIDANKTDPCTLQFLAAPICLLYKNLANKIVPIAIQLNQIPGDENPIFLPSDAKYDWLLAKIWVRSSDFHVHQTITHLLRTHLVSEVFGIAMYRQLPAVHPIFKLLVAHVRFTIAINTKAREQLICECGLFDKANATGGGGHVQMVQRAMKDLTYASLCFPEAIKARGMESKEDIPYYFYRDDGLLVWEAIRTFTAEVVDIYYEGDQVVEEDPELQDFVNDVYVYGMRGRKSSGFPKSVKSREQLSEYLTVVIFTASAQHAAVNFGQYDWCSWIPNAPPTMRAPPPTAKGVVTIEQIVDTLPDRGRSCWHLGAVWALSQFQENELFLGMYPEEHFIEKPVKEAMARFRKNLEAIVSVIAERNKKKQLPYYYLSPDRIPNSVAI
Test: In vitro inhibition of human recombinant 5-lipoxygenase enzyme; call rule not given here

| IC50 [nM] | SMILES |
| --- | --- |
| 500 | O=C1OCc2c1cc1cc3c(cc1c2-c1ccc2c(c1)OCO2)OCO3 |

Target: T1, Polyunsaturated fatty acid 5-lipoxygenase
Test: In vitro inhibition of human recombinant lipoxygenase enzyme; No inhibition

| IC50 | SMILES |
| --- | --- |
| Not Active | O=C1OCc2c1cc1cc(OCc3ccc(-c4ccccc4)cn3)ccc1c2-c1ccccc1 |

Target: T1, Polyunsaturated fatty acid 5-lipoxygenase
Test: In vitro inhibition of human recombinant lipoxygenase enzyme

| IC50 [nM] | SMILES |
| --- | --- |
| 3000 | O=C1OCc2c1cc1cc(OCc3ccccc3)ccc1c2-c1ccccc1 |

Target: T1, Polyunsaturated fatty acid 5-lipoxygenase
Test: In vitro inhibition of LTB4 biosynthesis by human leukocytes
Type: functional

| SMILES | IC50 [nM] |
| --- | --- |
| Cc1cc2cc3c(cc2c(-c2ccc4c(c2)OCO4)c1C)OCO3 | 250 |
| O=C1OCc2c1cc1ccncc1c2-c1ccccc1 | 3800 |
| O=C1OC(=O)c2c1cc1cc3c(cc1c2-c1ccc2c(c1)OCO2)OCO3 | 660 |
| COc1ccc(-c2c3c(cc4cc5c(cc24)OCO5)C(=O)OC3)cc1OC | > 5000 |
| O=C1OCc2c1cc1ccccc1c2-c1ccncc1 | > 4000 |
| O=C1OCc2c1cc1ccccc1c2-c1ccccc1 | 250 |
| COc1ccc(-c2c3c(cc4ccccc24)C(=O)OC3)cc1 | 1400 |
| COc1ccc2cc3c(c(-c4ccccc4)c2c1)COC3=O | 670 |
| O=C1OCc2c1cc1sccc1c2-c1ccccc1 | 450 |
| O=C1OCc2c1cc1ccccc1c2-c1ccc2c(c1)OCO2 | 380 |
| O=C1NCc2c1cc1cc3c(cc1c2-c1ccc2c(c1)OCO2)OCO3 | 4200 |
| OCc1cc2cc3c(cc2c(-c2ccc4c(c2)OCO4)c1CO)OCO3 | 2200 |
| c1cc2c(cc1C1c3cocc3Cc3cc4c(cc31)OCO4)OCO2 (stereo unspecified) | 420 |
| COc1cc2cc3c(c(-c4ccc5c(c4)OCO5)c2cc1OC)COC3=O [RETROJUSTICIDIN B] | 760 |
| O=C1OCc2cc3cc4c(cc3c(-c3ccc5c(c3)OCO5)c21)OCO4 [TAIWANIN C] | 250 |

These reach a lower IC50. Values come first.

| IC50 [nM] | SMILES |
| --- | --- |
| 180 | COc1ccc2c(-c3ccccc3)c3c(cc2c1)C(=O)OC3 |
| 70 | O=C1OCc2c1cc1cc3c(cc1c2-c1ccc2c(c1)OCO2)OCO3 |
| 22 | O=C1OCc2c1cc1cc(OCc3ccc(-c4ccccc4)cn3)ccc1c2-c1ccccc1 |
| 42 | COc1cccc(-c2c3c(cc4ccccc24)C(=O)OC3)c1 |
| 100 | O=C1OCc2c1cc1cc(OCc3ccccc3)ccc1c2-c1ccccc1 |
| 160 | O=C1OCc2c1cc1cc3c(cc1c2-c1ccccc1)OCO3 |
| 88 | O=C1OCc2c1cc1cc(OCc3ccc4ccccc4n3)ccc1c2-c1ccccc1 |
| 230 | c1cc2c(cc1-c1c3c(cc4cc5c(cc14)OCO5)COC3)OCO2 |
